In US20130225548A1, “Pyridine Derivative and Medicinal Agent” (NIPPON SHINYAKU CO., LTD., priority 2010, published 2013):
pIC50: −log10 of the molar value. Counter-ions that a name gives are not always drawn.

Biological target: T1, Syk tyrosine kinase (Homo sapiens, UniProt P43405)
T1 construct: purchased Carna Biosciences, Inc
Test: Test for Syk tyrosine kinase inhibitory activity (ELISA)
Format: biochemical
Conditions: Syk tyrosine kinase (Carna Biosciences), 25 μM ATP in substrate solution, 30° C. 1 hour, n=2; read-out: Evaluation (IC50, concentration inhibiting the tyrosine kinase activity at 50%)
Procedure: Test Example 1: Test for Syk Tyrosine Kinase Inhibitory Activity
1. Preparation of Test Substance
A test substance was prepared at 10 mM in dimethyl sulfoxide (DMSO), and further diluted with DMSO to concentrations of 1000, 300, 100, 30, 10, 3, 1, 0.3, 0.1, 0.03, and 0.01 μM. The resulting solutions were further diluted to 20-fold with an assay buffer, whereby test substance solutions were prepared. As a negative control, a solution obtained by diluting DMSO to 20-fold with an assay buffer was used. As the assay buffer, a buffer containing 15 mM Tris-HCl (pH 7.5), 0.01 (v/v) % Tween-20, and 1 mM dithiothreitol was used.
2. Measurement of Syk Tyrosine Kinase Inhibitory Activity
The activity was measured using the ELISA method. Each of the test substance solutions was added to a streptavidine-coated 96-well place (DELFIA Strip Plate 8×12 wells, PerkinElmer Co., Ltd,) at 10 μL per well (n=2), and a substrate solution (625 nM biotinylated peptide substrate, 25 μM ATP, 25 mM MgCl2, 15 mM Tris-HCl (pH 7.5), 0.01 (v/v) % Tween-20, 1 mM dithiothreitol) was added to the plate at 20 μL per well, and the resulting mixture was stirred. Finally, Syk tyrosine kinase (Carna Biosciences, Inc.) (previously diluted to 0.025 nM with the assay buffer) was added to the plate at 20 μL per well, and the resulting mixture was stirred. A reaction was allowed to proceed at 30° C. for 1 hour. After the plate was washed 4 times with a washing buffer (50 mM Tris-HCl (pH 7.5, 150 mM NaCl, 0.02 (v/v) % Tween-20), a blocking buffer (0.1% bovine serum albumin, 50 mM Tris-HCl (pH 7.5), 150 mM NaCl, 0.02 (v/v) % Tween-20) was added to the plate at 150 μL per well, and blocking was performed at 30° C. for 30 minutes. Then, the blocking buffer was removed, and a horseradish peroxidase-labeled anti-phosphorylated tyrosine antibody (BD Biosciences, Inc.) (previously diluted to 10000-fold with the blocking buffer) was added to the plate at 100 μL per well, and the plate was incubated at 30° C. for 30 minutes. After the plate was washed 4 times with the washing buffer, a 3,3′,5,5′-tetramethylbenzidine solution (Sigma-Aldrich Co., Ltd.) was added to the plate at 100 μL per well to develop the color for 10 minutes. The reaction was stopped by adding 0.1 M sulfuric acid at 100 μL per well. The absorbance at 450 nm was measured using a microplate reader (Multiskan F C, Thermo Fisher Scientific K,K.).
3. Analysis of Measurement Results
A non-linear regression analysis was performed for the measured absorbance using the SAS system (SAS institute. Inc.), and a concentration of each of the test substances: inhibiting the tyrosine kinase activity at 50% (IC50 ) was calculated. A case where IC50 is […] was evaluated as ***, a case where IC50 is 5 nM or more and less than 50 nM was evaluated as **, and a case where IC50 is 50 nM or more and less than 500 nM was evaluated as *, which are shown in the column of evaluation item.

| Compound | pIC50 |
| --- | --- |
| CC(C)(O)Cn1cnc2ccc(-c3cc(C4CC4)cc(Nc4cc(C#N)ccn4)n3)cc21 [Example 144, 2-({4-cyclopropyl-6-[1-(2-hydroxy-2-methylpropyl)-1H-benzimidazol-6-yl]pyridin-2-yl}amino)pyridine-4-carbonitrile hydrochloride] | 6.30 to 7.30 |
| CC(=O)N[C@@H]1CCN(c2ccc(-c3cc(C4CC4)cc(Nc4cc(C#N)ccn4)n3)cn2)C1 [Example 50, N-[(3R)-1-{6-[(4-cyanopyridin-2-yl)amino]-4-cyclopropyl-2,3′-bipyridin-6′-yl}pyrrolidin-3-yl]acetamide hydrochloride] | 6.30 to 7.30 |
| CN(C)C(=O)CCn1cnc2cc(-c3cc(C4CC4)cc(Nc4cc(C#N)ccn4)n3)ccc21 [Example 131, 3-(5-{6-[(4-cyanopyridin-2-yl)amino]-4-cyclopropylpyridin-2-yl}-1H-benzimidazol-1-yl)-N,N-dimethylproanamide hydrochloride] | 6.30 to 7.30 |
| N#Cc1ccnc(Nc2cc(C3CC3)cc(-c3ccc(N(CCO)CCO)nc3)n2)c1 [Example 31, 2-({6′-[bis(2-hydroxyethyl)amino]-4-cyclopropyl-2,3′-bipyridin-6-yl}amino)pyridine-4-carbonitrile hydrochloride] | 7.30 to 8.30 |
| N#Cc1ccnc(Nc2cc(C3CC3)cc(-c3ccnc(CN4CCNC(=O)C4)c3)n2)c1 [Example 87, 2-({4-cyclopropyl-2′-[(3-oxopiperazin-1-yl)methyl]-2,4′-bipyridin-6-yl}amino)pyridine-4-carbonitrile hydrochloride] | 7.30 to 8.30 |
| N#Cc1ccnc(Nc2cc(C3CC3)cc(-c3cncc(N4CCS(=O)(=O)CC4)c3)n2)c1 [Example 68, 2-{[4-cyclopropyl-5′-(1,1-dioxidethiomorpholin-4-yl)-2,3′-bipyridin-6-yl]amino}pyridine-4-carbonitrile hydrochloride] | 6.30 to 7.30 |
| N#Cc1ccnc(Nc2cc(C3CC3)cc(-c3ccc(N4CCCN(C(N)=O)CC4)nc3)n2)c1 [Example 10, 4-{6-[(4-cyanopyridin-2-yl)amino]-4-cyclopropyl-2,3′-bipyridin-6′-yl}-1,4-diazepane-1-carboxamide hydrochloride] | 7.30 to 8.30 |
| 2-({4-cyclopropyl-6-[2-ethyl-1-(trans-4-hydroxycyclohexyl)-1H-benzimidazol-6-yl]pyridin-2-yl}amino)pyridine-4-carbonitrile hydrochloride [Example 157] | > 8.30 |
| N#Cc1ccnc(Nc2cc(C3CC3)cc(-c3ccc4c(c3)ncn4CCO)n2)c1 [Example 147, 2-({4-cyclopropyl-6-[1-(2-hydroxyethyl)-1H-benzimidazol-5-yl]pyridin-2-yl}amino)pyridine-4-carbonitrile hydrochloride] | 6.30 to 7.30 |
| N#Cc1ccnc(Nc2cc(C3CC3)cc(-c3ccc(N4CCC[C@@H]4C(N)=O)nc3)n2)c1 [Example 47, (R)-1-{6-[(4-cyanopyridin-2-yl)amino]-4-cyclopropyl-2,3′-bipyridin-6′-yl}pyrrolidine-2-carboxamide hydrochloride] | 6.30 to 7.30 |
| N#Cc1ccnc(Nc2cc(C3CC3)cc(-c3ccc(CN4CCNC(=O)C4)cc3)n2)c1 [Example 80, 2-[(4-cyclopropyl-6-{4-[(3-oxopiperazin-1-yl)methyl]phenyl}pyridin-2-yl)amino]pyridine-4-carbonitrile hydrochloride] | 6.30 to 7.30 |
| CNC1CCN(c2ccc(-c3cc(C4CC4)cc(Nc4cc(C#N)ccn4)n3)cn2)CC1 [Example 29, 2-({4-cyclopropyl-6′-[4-(methylamino)piperidin-1-yl]-2,3′-bipyridin-6-yl}amino)pyridine-4-carbonitrile dihydrochloride] | 7.30 to 8.30 |
| N#Cc1ccnc(Nc2cc(C3CC3)cc(-c3ccc(N4CCN(C(N)=O)CC4)nc3)n2)c1 [Example 57, 4-{6-[(4-cyanopyridin-2-yl)amino]-4-cyclopropyl-2,3′-bipyridin-6′-yl}piperazine-1-carboxamide hydrochloride] | 7.30 to 8.30 |

Next, values leading:

| pIC50 | Compound |
| --- | --- |
| 7.30 to 8.30 | N#Cc1ccnc(Nc2cc(C3CC3)cc(-c3ccc4ncn([C@H]5CC[C@H](C#N)CC5)c4c3)n2)c1 [Example 176, 2-({6-[1-(trans-4-cyanocyclohexyl)-1H-benzimidazol-6-yl]-4-cyclopropylpyridin-2-yl}amino)pyridine-4-carbonitrile hydrochloride] |
| 7.30 to 8.30 | N#Cc1ccnc(Nc2cc(C3CC3)cc(-c3cncc(N4CCC(O)C4)c3)n2)c1 (centres unmarked) [Example 111, 2-{[4-cyclopropyl-5′-(3-hydroxypyrrolidin-1-yl)-2,3′-bipyridin-6-yl]amino}pyridine-4-carbonitrile hydrochloride] |
| 7.30 to 8.30 | N#Cc1ccnc(Nc2cc(C3CC3)cc(-c3ccc4ncn(C5CCCC5O)c4c3)n2)c1 (stereo not drawn) [Example 140, 2-[(4-cyclopropyl-6-{1-[trans-2-hydroxycyclopenyl]-1H-benzimidazol-6-yl}pyridine-2-yl)amino]pyridine-4-carbonitrile hydrochloride] |
| 7.30 to 8.30 | N#Cc1ccnc(Nc2cc(C3CC3)cc(-c3cncc(CN4CCNC(=O)C4)c3)n2)c1 [Example 73, 2-({4-cyclopropyl-5′-[(3-oxopiperazin-1-yl)methyl]-2,3′-bipyridin-6-yl}amino)pyridine-4-carbonitrile hydrochloride] |
| 7.30 to 8.30 | N#Cc1ccnc(Nc2cc(C3CC3)cc(-c3ccc4c(c3)ncn4C3CCOCC3)n2)c1 [Example 16, 2-({4-cyclopropyl-6-[1-tetrahydro-2H-pyran-4-yl)-1H-benzimidazol-5-yl]pyridin-2-yl}amino)pyridine-4-carbonitrile hydrochloride] |
| 7.30 to 8.30 | N#Cc1ccnc(Nc2cc(C3CC3)cc(-c3cnc(N4CCCN(C(N)=O)CC4)nc3)n2)c1 [Example 106, 4-(5-{6-[(4-cyanopyridin-2-yl)amino]-4-cyclopropylpyridin-2-yl}pyrimidin-2-yl)-1,4-diazepane-1-carboxamide hydrochloride] |
| 7.30 to 8.30 | N#Cc1ccnc(Nc2cc(C3CC3)cc(-c3ccc4ncn([C@H]5CC[C@H](N)CC5)c4c3)n2)c1 [Example 172, 2-({6-[1-(trans-4-aminocyclohexyl)-1H-benzimidazol-6-yl]-4-cyclopropylpyridin-2-yl}amino)pyridine-4-carbonitrile hydrochloride] |
| 7.30 to 8.30 | N#Cc1ccnc(Nc2cc(C3CC3)cc(-c3cnc(N4CCS(=O)(=O)CC4)c(F)c3)n2)c1 [Example 177, 2-{[4-cyclopropyl-6′-(1,1-dioxidethiomorpholin-4-yl)-5′-fluoro-2,3′-bipyridin-6-yl]amino}pyridine-4-carbonitrile hydrochloride] |
| > 8.30 | N#Cc1ccnc(Nc2cc(C3CC3)cc(-c3cncc(N4CCCNCC4)c3)n2)c1 [Example 98, 2-{[4-cyclopropyl-5′-(1,4-diazepan-1-yl)-2,3′-bipyridin-6-yl]amino}pyridine-4-carbonitrile hydrochloride] |
| 7.30 to 8.30 | N#Cc1ccnc(Nc2cc(C3CC3)cc(-c3cncc(OCC(N)=O)c3)n2)c1 [Example 109, 2-({6-[(4-cyanopyridin-2-yl)amino]-4-cyclopropyl-2,3′-bipyridin-5′-yl}oxy)acetamide hydrochloride] |
| 7.30 to 8.30 | N#Cc1ccnc(Nc2cc(C3CC3)cc(-c3ccc4ccnc(N5CC[C@@H](O)C5)c4c3)n2)c1 [Example 165, 2-[(4-cyclopropyl-6-{1-[(3R)-3-hydroxypyrrolidin-1-]isoquinolin-7-yl}pyridin-2-yl)amino]pyridine-4-carbonitrile hydrochloride] |
| 7.30 to 8.30 | N#Cc1ccnc(Nc2cc(C3CC3)cc(-c3ccc4ccnc(N5CCC(O)CC5)c4c3)n2)c1 [Example 164, 2-({4-cyclopropyl-6-[1-(4-hydroxypiperidin-1-yl)isoquinolin-7-yl]pyridin-2-yl}amino)pyridine-4-carbonitrile hydrochloride] |
| > 8.30 | N#Cc1ccnc(Nc2cc(C3CC3)cc(-c3cncc(OC4CCNCC4)c3)n2)c1 [Example 96, 2-([4-cyclopropyl-5′-(piperidin-4-yloxy)-2,3′-bipyridin-6-yl]amino)pyridine-4-carbonitrile hydrochloride] |
